Test results as given in ChEMBL document CHEMBL1201862, “PubChem BioAssay data set” (2004).
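Method: 48-hour compound exposure of cells in 96-well plates, five concentrations, linear interpolation of endpoints. The concentration for 50% growth inhibition is given as GI50.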 The source made the active and inactive calls. No stated cut-off is given here; in the data, active = GI50 up to about 1.1 µM and inactive = higher.

What was measured:
Test in all cases: DTP human tumour cell line panel, 48 h
BT-549 = test system: BT-549
COLO 205 = test system: COLO 205
DU-145 = test system: DU-145
HOP-62 = test system: HOP-62
Hs-578T = test system: Hs-578T
K562 = test system: K562
M14 = test system: M14
MCF7 = test system: MCF7
MDA-N = test system: MDA-N
Malme-3M = test system: Malme-3M
NCI-H226 = test system: NCI-H226
OVCAR-3 = test system: OVCAR-3
OVCAR-5 = test system: OVCAR-5
OVCAR-8 = test system: OVCAR-8
PC-3 = test system: PC-3
RPMI-8226 = test system: RPMI-8226
SK-MEL-2 = test system: SK-MEL-2
SK-OV-3 = test system: SK-OV-3
SNB-19 = test system: SNB-19
SR = test system: SR

Row | SMILES | GI50 (BT-549) | GI50 (COLO 205) | GI50 (DU-145) | GI50 (HOP-62) | GI50 (Hs-578T) | GI50 (K562) | GI50 (M14) | GI50 (MCF7) | GI50 (MDA-N) | GI50 (Malme-3M) | GI50 (NCI-H226) | GI50 (OVCAR-3) | GI50 (OVCAR-5) | GI50 (OVCAR-8) | GI50 (PC-3) | GI50 (RPMI-8226) | GI50 (SK-MEL-2) | GI50 (SK-OV-3) | GI50 (SNB-19) | GI50 (SR)
1 | COC(=O)[C@]1(C)CCC[C@@]2(C)[C@@H]3C[C@@H]4[C@H]5C[C@@]3(CC[C@@H]21)C[C@@]45C | 16.5 µM (inactive) | 20.5 µM (inactive) | 25.8 µM (inactive) | 17.8 µM (inactive) | 20.5 µM (inactive) | 0.643 µM (active) | 20.7 µM (inactive) | 14.9 µM (inactive) | 17.9 µM (inactive) | 22.2 µM (inactive) | 15.8 µM (inactive) | 18.2 µM (inactive) | 18 µM (inactive) | 16.4 µM (inactive) | 15.2 µM (inactive) | 10.3 µM (inactive) | 16.4 µM (inactive) | 14.7 µM (inactive) | 13.9 µM (inactive) | –
2 | CC(C)(C)C(=O)C(C(=O)c1ccccc1)C(=O)C(C)(C)C | – | > 100 µM (inactive) | > 100 µM (inactive) | > 100 µM (inactive) | > 100 µM (inactive) | > 100 µM (inactive) | > 100 µM (inactive) | > 100 µM (inactive) | > 100 µM (inactive) | > 100 µM (inactive) | > 100 µM (inactive) | > 100 µM (inactive) | > 100 µM (inactive) | 48.5 µM (inactive) | > 100 µM (inactive) | > 100 µM (inactive) | > 100 µM (inactive) | > 100 µM (inactive) | > 100 µM (inactive) | –
3 | C=C1CCC2[C@](C)(CCC[C@]2(C)C(=O)O)[C@@H]1CCc1ccoc1 (stereo not given in full) | – | 17.4 µM (inactive) | 43.5 µM (inactive) | 40.6 µM (inactive) | 33.2 µM (inactive) | 53.5 µM (inactive) | 41.1 µM (inactive) | – | 61.8 µM (inactive) | 32.2 µM (inactive) | 20.6 µM (inactive) | 24 µM (inactive) | 90.6 µM (inactive) | – | 46 µM (inactive) | 44.7 µM (inactive) | 29.4 µM (inactive) | > 100 µM (inactive) | 43.5 µM (inactive) | 27 µM (inactive)
4 | CS(=O)(=O)c1ccc(/C=N/NC(N)=S)cc1 | > 100 µM (inactive) | > 100 µM (inactive) | > 100 µM (inactive) | > 100 µM (inactive) | > 100 µM (inactive) | > 100 µM (inactive) | > 100 µM (inactive) | > 100 µM (inactive) | > 100 µM (inactive) | > 100 µM (inactive) | > 100 µM (inactive) | > 100 µM (inactive) | > 100 µM (inactive) | > 100 µM (inactive) | > 100 µM (inactive) | > 100 µM (inactive) | – | > 100 µM (inactive) | > 100 µM (inactive) | –
5 | Cc1ccsc1/C=N/Nc1ccc2ccccc2n1 | 34.4 µM (inactive) | 27.7 µM (inactive) | 48.9 µM (inactive) | 19.8 µM (inactive) | 37.7 µM (inactive) | 59.8 µM (inactive) | 29.1 µM (inactive) | 11.4 µM (inactive) | 43.4 µM (inactive) | – | 35.9 µM (inactive) | 10.4 µM (inactive) | > 100 µM (inactive) | 41.4 µM (inactive) | 19.6 µM (inactive) | 48.8 µM (inactive) | 25.2 µM (inactive) | 16.5 µM (inactive) | 39.4 µM (inactive) | –
6 | CN(C)CCCNC(=O)c1cc(NC(=O)c2cc(NC(=O)CCCn3c4ccccc4c4ccccc43)cn2C)cn1C | 15 µM (inactive) | 2.15 µM (inactive) | 17.9 µM (inactive) | 13.6 µM (inactive) | 15.5 µM (inactive) | 3.13 µM (inactive) | 4.41 µM (inactive) | 5.89 µM (inactive) | – | 6.03 µM (inactive) | – | 13.4 µM (inactive) | 20.1 µM (inactive) | 22.8 µM (inactive) | 19.2 µM (inactive) | 3.08 µM (inactive) | 24.8 µM (inactive) | 12 µM (inactive) | 10.5 µM (inactive) | –
7 | CCOc1cccc(-c2cc(O)c3cc4c(cc3n2)OCO4)c1 | – | 0.206 µM (active) | 0.335 µM (active) | 0.621 µM (active) | 0.163 µM (active) | 0.0516 µM (active) | 0.371 µM (active) | 0.673 µM (active) | 0.0214 µM (active) | 0.141 µM (active) | 0.438 µM (active) | 0.182 µM (active) | – | 0.265 µM (active) | 0.112 µM (active) | 0.318 µM (active) | 0.191 µM (active) | 0.166 µM (active) | 0.321 µM (active) | 0.0476 µM (active)
